Measured values published in US7951815B2, “Substituted 1,4,8-triazaspiro [4,5]decan-2-one compounds” (Gruenenthal GmbH, priority 2004, dated 2011).

What was measured:
NA transporter = assay: Inhibition of noradrenaline uptake in rat brain synaptosomes; assay type: biochemical; settings: Table III
5-HT transporter = target: T1, 5-HT transporter (Rattus norvegicus, UniProt P31652); assay: Inhibition of 5-HT uptake in rat brain synaptosomes; assay type: biochemical; settings: read-out: Uptake 5-HT, % inhibition; Table III; rat, 1 μM
T1 construct: synaptosomes of rat brain areas are freshly isolated; from tissue; host or cells: rat brain synaptosomes (P2 fraction) from marrow and pons
T1 sequence (P31652 whole entry): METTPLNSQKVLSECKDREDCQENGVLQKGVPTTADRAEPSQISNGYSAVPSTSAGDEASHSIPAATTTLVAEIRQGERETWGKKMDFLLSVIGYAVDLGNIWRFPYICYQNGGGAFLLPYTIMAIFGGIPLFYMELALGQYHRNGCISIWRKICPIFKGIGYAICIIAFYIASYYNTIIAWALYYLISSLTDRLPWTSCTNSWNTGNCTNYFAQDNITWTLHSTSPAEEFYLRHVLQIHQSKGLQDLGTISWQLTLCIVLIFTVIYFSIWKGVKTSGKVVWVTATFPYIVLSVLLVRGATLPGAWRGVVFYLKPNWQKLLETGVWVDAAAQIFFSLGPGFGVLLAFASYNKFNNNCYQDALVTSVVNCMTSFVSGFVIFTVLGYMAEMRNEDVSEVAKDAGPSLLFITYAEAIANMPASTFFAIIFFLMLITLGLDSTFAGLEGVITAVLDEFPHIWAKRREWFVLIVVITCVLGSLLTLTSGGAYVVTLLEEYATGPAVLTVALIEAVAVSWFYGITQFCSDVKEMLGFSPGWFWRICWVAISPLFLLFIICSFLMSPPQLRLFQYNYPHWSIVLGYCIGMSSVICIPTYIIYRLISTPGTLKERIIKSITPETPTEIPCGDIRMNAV

Row | SMILES | inhibition at 1 µM (5-HT transporter) [%] | Uptake (NA), rat, 10 μM, % inhibition (NA transporter) [%]
1 | CCCC(C)C(=O)N1CCC2(CC1)NCC(=O)N2Cc1ccccc1C#N (stereo not shown) [Example 71, 2-[8-(2-Methylpentanoyl)-2-oxo-1,4,8-triazaspiro[4,5]dec-1-ylmethyl]benzonitrile] | 53 | 52
2 | Cc1cccc(C(=O)N2CCC3(CC2)NCC(=O)N3CCOc2ccccc2)c1 [Example 86, 8-(3-Methylbenzoyl)-1-(2-phenoxyethyl)-1,4,8-triazaspiro[4,5]decan-2-one] | 50 | 38
3 | N#Cc1ccccc1CN1C(=O)CNC12CCN(C(=O)C=Cc1ccccc1Cl)CC2 [Example 89, 2-{8-[3-(2-Chlorophenyl)acryloyl]-2-oxo-1,4,8-triazaspiro[4,5]dec-1-ylmethyl}benzonitrile] | 43 | 41
4 | COc1cc(OC)cc(C(=O)N2CCC3(CC2)NC(=O)C(CC(C)C)N3)c1 (stereo not shown) [Example 92, 8-(3,5-Dimethoxybenzoyl)-3-isobutyl-1,4,8-triazaspiro[4,5]decan-2-one] | 30 | 30
5 | CN1C(=O)C(Cc2ccccc2)NC12CCN(C(=O)c1ccc([N+](=O)[O-])cc1)CC2 (stereo not shown) [Example 238, 3-Benzyl-1-methyl-8-(4-nitrobenzoyl)-1,4,8-triazaspiro[4,5]decan-2-one] |  | 31
6 | COC(=O)c1ccc(CN2C(=O)CNC23CCN(C(=O)c2ccnc(Cl)c2)CC3)cc1 [Example 272, Methyl 4-[8-(2-Chloropyridin-4-earbonyl)-2-oxo-1,4,8-triazaspiro[4,5]dec-1-ylmethyl]benzoate] |  | 31
7 | CCOC(=O)CN1C(=O)C(CCSC)NC12CCN(C(=O)c1ccccc1C(=O)OCc1ccccc1)CC2 (stereo not shown) [Example 332, Benzyl 2-[1-ethoxycarbonylmethyl-3-(2-methylsulfanylethyl)-2-oxo-1,4,8-triazaspiro[4,5]decan-8-carbonyl]benzoate] |  | 36

Second part, led by results:

Row | inhibition at 1 µM (5-HT transporter) [%] | SMILES | Uptake (NA), rat, 10 μM, % inhibition (NA transporter) [%]
8 | 56 | CCSc1ncccc1C(=O)N1CCC2(CC1)NC(Cc1ccccc1)C(=O)N2C (stereo not shown) [Example 78, 3-Benzyl-8-(2-ethylsulfanylpyridin-3-carbonyl)-1-methyl-1,4,8-triazaspiro[4,5]decan-2-one] | 33
9 | 34 | Cc1nnsc1C(=O)N1CCC2(CC1)NCC(=O)N2Cc1ccccc1 [Example 88, 1-Benzyl-8-(4-methyl[1,2,3]thiadiazole-5-carbonyl)-1,4,8-triazaspiro[4,5]decan-2-one] | 32
10 | 41 | CC(C)CC1NC2(CCN(C(=O)c3cccc(Cl)c3)CC2)NC1=O (stereo not shown) [Example 90, 8-(3-Chlorobenzoyl)-3-isobutyl-1,4,8-triazaspiro[4,5]decan-2-one] | 35
11 | 67 | CCCCN1C(=O)C(CCSC)NC12CCN(C(=O)Cc1ccc(OC)c(OC)c1)CC2 (stereo not shown) [Example 97, 1-Butyl-8-[2-(3,4-dimethoxyphenyl)acetyl]-3-(2-methylsulfanylethyl)-1,4,8-triazaspiro[4,5]decan-2-one] | 30
12 | 57 | CC(C)C1NC2(CCN(C(=O)c3ccncc3)CC2)N(Cc2ccccc2)C1=O (stereo not shown) [Example 98, 1-Benzyl-3-isopropyl-8-(pyridin-4-carbonyl)-1,4,8-triazaspiro[4,5]decan-2-one] | 36
13 | 42 | CSCCC1NC2(CCN(C(=O)CC3NC(=O)NC3=O)CC2)N(Cc2ccc(F)cc2)C1=O (stereo not shown) [Example 100, 5-{2-[1-(4-Fluorobenzyl)-3-(2-methylsulfanylethyl)-2-oxo-1,4,8-triazaspiro[4,5]dec-8-yl]-2-oxoethyl}imidazolidine-2,4-dione] | 32
14 | 34 | CC(C)C1NC2(CCN(C(=O)c3ccco3)CC2)N(Cc2ccccc2C#N)C1=O (stereo not shown) [Example 103, 2-[8-(Furan-2-carbonyl)-3-isopropyl-2-oxo-1,4,8-triazaspiro[4,5]dec-1-ylmethyl]benzonitrile] | 30
